Experimental data reported in US20210238173A1, “MITOGEN-ACTIVATED PROTEIN KINASE KINASE 7 INHIBITORS” (Yeda Research and Development Co. Ltd., priority 2018, published 2021).

Columns and labels:
Assay type in all cases: biochemical
Details in all cases: 1 μM compound
IKBKB (IKK beta) = IKBKB (IKK beta) (Homo sapiens, UniProt O14920); assay: Kinome selectivity screen IKBKB
Method: (§1) Kinome Selectivity Screen:
(§2) Kinase selectivity was assessed using the Life Technologies SelectScreen Kinase Profiling Service in a custom panel of 76 kinases selected to provide broad representative coverage of all kinase families. Kinase activity assays employed either the Z′-LYTE or Adapta assay technologies with ATP concentrations at or near the KM, ATP for each kinase and a test compound concentration of 1 μM.

ERBB2 (HER2) = ERBB2 (HER2) (Homo sapiens, UniProt P04626); assay: Kinome selectivity screen ERBB2
Method: as §1, §2

ROCK1 = ROCK1 (Homo sapiens, UniProt Q13464); assay: Kinome selectivity screen ROCK1
Method: as §1, §2

TAOK2 (TAO1) = TAOK2 (TAO1) (Homo sapiens, UniProt Q9UL54); assay: Kinome selectivity screen TAOK2
Method: as §1, §2

DYRK3 = DYRK3 (Homo sapiens, UniProt O43781); assay: Kinome selectivity screen DYRK3
Method: as §1, §2

STK22D (TSSK1) = STK22D (TSSK1) (Homo sapiens, UniProt Q9BXA7); assay: Kinome selectivity screen STK22D
Method: as §1, §2

NTRK1 (TRKA) = NTRK1 (TRKA) (Homo sapiens, UniProt P04629); assay: Kinome selectivity screen NTRK1
Method: as §1, §2

FGFR1 = FGFR1 (Homo sapiens, UniProt P11362); assay: Kinome selectivity screen FGFR1
Chain of FGFR1 (P11362 22-822): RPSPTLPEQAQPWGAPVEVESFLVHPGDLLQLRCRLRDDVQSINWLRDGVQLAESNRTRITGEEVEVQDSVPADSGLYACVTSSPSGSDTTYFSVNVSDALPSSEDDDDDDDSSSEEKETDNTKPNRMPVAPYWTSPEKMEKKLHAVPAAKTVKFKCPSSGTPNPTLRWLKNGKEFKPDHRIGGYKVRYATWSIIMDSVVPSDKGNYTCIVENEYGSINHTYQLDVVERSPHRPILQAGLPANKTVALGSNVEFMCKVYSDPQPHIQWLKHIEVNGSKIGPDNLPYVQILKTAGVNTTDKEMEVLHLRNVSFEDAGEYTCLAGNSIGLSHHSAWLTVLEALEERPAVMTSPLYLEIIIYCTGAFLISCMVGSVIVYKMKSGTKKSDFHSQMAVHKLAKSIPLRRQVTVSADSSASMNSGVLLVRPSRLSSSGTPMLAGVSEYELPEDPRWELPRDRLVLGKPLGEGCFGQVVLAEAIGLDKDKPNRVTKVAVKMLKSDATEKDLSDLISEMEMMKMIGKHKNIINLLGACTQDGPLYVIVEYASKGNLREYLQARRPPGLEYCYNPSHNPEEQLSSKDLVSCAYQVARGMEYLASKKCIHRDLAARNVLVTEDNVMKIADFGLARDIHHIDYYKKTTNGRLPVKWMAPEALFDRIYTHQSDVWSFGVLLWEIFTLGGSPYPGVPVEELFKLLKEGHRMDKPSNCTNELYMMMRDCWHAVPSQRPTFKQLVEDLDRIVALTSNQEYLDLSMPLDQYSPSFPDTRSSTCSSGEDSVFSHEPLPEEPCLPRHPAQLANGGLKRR
Method: as §1, §2

MAPK8 (JNK1) = MAPK8 (JNK1) (Homo sapiens, UniProt P45983); assay: Kinome selectivity screen MAPK8
Chain of MAPK8 (JNK1) (P45983 whole entry): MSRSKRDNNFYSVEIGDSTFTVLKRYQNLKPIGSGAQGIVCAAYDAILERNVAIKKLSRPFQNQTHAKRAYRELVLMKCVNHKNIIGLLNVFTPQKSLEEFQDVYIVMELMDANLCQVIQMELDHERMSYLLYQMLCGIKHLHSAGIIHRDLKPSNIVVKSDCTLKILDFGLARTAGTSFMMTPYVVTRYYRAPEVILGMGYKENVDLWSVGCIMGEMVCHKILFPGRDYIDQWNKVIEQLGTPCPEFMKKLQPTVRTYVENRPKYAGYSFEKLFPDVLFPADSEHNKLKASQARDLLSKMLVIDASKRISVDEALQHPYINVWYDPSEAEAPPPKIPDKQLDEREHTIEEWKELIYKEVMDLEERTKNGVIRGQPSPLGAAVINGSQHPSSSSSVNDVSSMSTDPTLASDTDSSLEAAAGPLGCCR
Method: as §1, §2

RPS6KB1 (p70S6K) = RPS6KB1 (p70S6K) (Homo sapiens, UniProt P23443); assay: Kinome selectivity screen RPS6KB1
Method: as §1, §2

KIT = KIT (Homo sapiens, UniProt P10721); assay: Kinome selectivity screen KIT
Method: as §1, §2

GRK4 = GRK4 (Homo sapiens, UniProt P32298); assay: Kinome selectivity screen GRK4
Method: as §1, §2

MAP3K9 (MLK1) = MAP3K9 (MLK1) (Homo sapiens, UniProt P80192); assay: Kinome selectivity screen MAP3K9
Chain of MAP3K9 (MLK1) (P80192 whole entry): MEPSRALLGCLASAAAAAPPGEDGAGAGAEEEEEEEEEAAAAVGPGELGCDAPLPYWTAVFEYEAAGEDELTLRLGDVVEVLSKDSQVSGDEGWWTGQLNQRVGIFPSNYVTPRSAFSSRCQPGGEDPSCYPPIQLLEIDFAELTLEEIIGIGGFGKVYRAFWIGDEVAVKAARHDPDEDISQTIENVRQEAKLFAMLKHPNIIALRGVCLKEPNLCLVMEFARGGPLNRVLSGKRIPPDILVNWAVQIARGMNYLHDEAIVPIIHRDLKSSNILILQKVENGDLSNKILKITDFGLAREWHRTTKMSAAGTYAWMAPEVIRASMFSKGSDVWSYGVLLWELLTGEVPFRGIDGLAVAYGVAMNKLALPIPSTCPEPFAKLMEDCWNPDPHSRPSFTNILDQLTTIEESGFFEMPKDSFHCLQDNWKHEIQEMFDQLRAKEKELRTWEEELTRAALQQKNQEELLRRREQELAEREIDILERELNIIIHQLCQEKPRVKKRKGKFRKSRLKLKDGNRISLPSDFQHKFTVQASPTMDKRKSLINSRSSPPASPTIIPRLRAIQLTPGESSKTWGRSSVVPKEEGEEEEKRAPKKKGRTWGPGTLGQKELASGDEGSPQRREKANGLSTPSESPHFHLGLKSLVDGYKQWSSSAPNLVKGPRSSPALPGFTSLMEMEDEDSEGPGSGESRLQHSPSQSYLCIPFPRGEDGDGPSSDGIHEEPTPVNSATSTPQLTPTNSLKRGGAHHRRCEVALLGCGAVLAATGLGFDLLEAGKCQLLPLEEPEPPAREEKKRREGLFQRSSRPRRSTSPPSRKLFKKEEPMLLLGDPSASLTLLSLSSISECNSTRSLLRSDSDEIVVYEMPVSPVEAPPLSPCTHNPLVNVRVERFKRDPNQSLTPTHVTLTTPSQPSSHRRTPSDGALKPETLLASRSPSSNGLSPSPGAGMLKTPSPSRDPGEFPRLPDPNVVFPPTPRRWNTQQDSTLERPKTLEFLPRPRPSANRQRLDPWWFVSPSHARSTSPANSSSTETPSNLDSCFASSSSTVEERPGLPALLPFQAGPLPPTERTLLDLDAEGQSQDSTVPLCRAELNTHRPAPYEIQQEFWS
Method: as §1, §2

MAPKAPK2 = MAPKAPK2 (Homo sapiens, UniProt P49137); assay: Kinome selectivity screen MAPKAPK2
Method: as §1, §2

BTK = BTK (Homo sapiens, UniProt Q06187); assay: Kinome selectivity screen BTK
Method: as §1, §2

PIM2 = PIM2 (Homo sapiens, UniProt Q9P1W9); assay: Kinome selectivity screen PIM2
Method: as §1, §2

MAP2K4 (MEK4) = MAP2K4 (MEK4) (Homo sapiens, UniProt P45985); assay: Kinome selectivity screen MAP2K4
Method: as §1, §2

ACVR1B (ALK4) = ACVR1B (ALK4) (Homo sapiens, UniProt P36896); assay: Kinome selectivity screen ACVR1B
Method: as §1, §2

PRKCD (PKC delta) = PRKCD (PKC delta) (Homo sapiens, UniProt Q05655); assay: Kinome selectivity screen PRKCD
Chain of PRKCD (PKC delta) (Q05655 whole entry): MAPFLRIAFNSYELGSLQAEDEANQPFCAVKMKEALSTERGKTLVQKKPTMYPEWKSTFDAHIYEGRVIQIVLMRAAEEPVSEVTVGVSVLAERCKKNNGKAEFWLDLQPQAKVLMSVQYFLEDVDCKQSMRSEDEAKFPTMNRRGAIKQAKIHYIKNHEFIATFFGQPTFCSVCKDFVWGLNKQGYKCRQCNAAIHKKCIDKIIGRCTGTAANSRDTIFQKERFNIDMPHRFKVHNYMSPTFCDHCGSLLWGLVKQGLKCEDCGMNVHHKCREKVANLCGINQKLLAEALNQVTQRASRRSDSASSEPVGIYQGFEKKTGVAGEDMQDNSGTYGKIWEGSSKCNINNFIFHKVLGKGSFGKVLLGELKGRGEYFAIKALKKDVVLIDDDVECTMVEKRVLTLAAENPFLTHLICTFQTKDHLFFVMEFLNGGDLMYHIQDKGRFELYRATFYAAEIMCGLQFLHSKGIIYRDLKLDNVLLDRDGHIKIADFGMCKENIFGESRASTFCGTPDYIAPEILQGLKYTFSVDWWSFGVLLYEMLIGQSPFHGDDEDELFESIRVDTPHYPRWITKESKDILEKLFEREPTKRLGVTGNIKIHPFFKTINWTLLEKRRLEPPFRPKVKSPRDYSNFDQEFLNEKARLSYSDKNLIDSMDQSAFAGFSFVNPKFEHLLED
Method: as §1, §2

CDK1/cyclin B = CDK1/cyclin B (Homo sapiens, UniProt P06493); assay: Kinome selectivity screen CDK1/cyclin B
Chain of CDK1/cyclin B (P06493 whole entry): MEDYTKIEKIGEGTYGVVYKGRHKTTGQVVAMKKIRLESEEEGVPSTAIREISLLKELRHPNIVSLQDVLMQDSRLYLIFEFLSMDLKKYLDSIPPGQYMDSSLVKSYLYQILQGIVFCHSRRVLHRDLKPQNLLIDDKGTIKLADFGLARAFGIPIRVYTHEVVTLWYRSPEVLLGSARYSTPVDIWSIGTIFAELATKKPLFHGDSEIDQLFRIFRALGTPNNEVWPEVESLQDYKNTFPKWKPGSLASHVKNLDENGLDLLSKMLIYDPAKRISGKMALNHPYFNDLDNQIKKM
Chain of CDK1/cyclin B (P14635 whole entry partner): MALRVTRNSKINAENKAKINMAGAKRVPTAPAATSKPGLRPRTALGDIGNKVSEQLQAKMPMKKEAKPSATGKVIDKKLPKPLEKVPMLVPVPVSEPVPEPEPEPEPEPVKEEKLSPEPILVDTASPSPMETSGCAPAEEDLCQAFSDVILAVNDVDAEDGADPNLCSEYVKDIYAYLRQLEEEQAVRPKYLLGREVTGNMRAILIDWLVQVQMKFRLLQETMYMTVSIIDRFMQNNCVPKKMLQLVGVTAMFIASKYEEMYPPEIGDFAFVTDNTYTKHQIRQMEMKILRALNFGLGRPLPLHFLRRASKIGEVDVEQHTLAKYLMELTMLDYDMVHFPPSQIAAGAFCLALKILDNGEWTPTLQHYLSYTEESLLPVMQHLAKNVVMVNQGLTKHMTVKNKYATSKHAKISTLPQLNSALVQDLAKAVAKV
Method: as §1, §2

INSR = INSR (Homo sapiens, UniProt P06213); assay: Kinome selectivity screen INSR
Method: as §1, §2

FLT3 = FLT3 (Homo sapiens, UniProt P36888); assay: Kinome selectivity screen FLT3
Method: as §1, §2

NEK7 = NEK7 (Homo sapiens, UniProt Q8TDX7); assay: Kinome selectivity screen NEK7
Method: as §1, §2

SRC = SRC (Homo sapiens, UniProt P12931); assay: Kinome selectivity screen SRC
Method: as §1, §2

PRKACA (PKA) = PRKACA (PKA) (Homo sapiens, UniProt P17612); assay: Kinome selectivity screen PRKACA
Method: as §1, §2

PDK1 Direct = PDK1 Direct (Homo sapiens, UniProt O15530); assay: Kinome selectivity screen PDK1 Direct
Method: as §1, §2

IRAK4 = IRAK4 (Homo sapiens, UniProt Q9NWZ3); assay: Kinome selectivity screen IRAK4
Chain of IRAK4 (Q9NWZ3 whole entry): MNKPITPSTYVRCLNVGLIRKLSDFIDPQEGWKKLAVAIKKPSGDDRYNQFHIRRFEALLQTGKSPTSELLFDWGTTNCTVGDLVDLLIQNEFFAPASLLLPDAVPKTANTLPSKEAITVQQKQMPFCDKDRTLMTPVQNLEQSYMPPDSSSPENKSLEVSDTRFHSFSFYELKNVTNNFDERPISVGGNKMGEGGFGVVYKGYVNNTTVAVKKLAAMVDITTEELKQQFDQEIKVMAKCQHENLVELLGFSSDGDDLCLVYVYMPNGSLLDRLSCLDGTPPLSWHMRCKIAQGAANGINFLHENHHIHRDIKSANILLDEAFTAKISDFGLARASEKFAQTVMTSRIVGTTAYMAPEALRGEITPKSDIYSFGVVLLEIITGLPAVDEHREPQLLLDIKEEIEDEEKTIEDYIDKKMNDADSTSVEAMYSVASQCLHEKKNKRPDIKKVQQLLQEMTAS
Method: as §1, §2

MET (cMet) = MET (cMet) (Homo sapiens, UniProt P08581); assay: Kinome selectivity screen MET
Method: as §1, §2

LRRK2 = LRRK2 (Homo sapiens, UniProt Q5S007); assay: Kinome selectivity screen LRRK2
Method: as §1, §2

MAP4K5 (KHS1) = MAP4K5 (KHS1) (Homo sapiens, UniProt Q9Y4K4); assay: Kinome selectivity screen MAP4K5
Chain of MAP4K5 (KHS1) (Q9Y4K4 whole entry): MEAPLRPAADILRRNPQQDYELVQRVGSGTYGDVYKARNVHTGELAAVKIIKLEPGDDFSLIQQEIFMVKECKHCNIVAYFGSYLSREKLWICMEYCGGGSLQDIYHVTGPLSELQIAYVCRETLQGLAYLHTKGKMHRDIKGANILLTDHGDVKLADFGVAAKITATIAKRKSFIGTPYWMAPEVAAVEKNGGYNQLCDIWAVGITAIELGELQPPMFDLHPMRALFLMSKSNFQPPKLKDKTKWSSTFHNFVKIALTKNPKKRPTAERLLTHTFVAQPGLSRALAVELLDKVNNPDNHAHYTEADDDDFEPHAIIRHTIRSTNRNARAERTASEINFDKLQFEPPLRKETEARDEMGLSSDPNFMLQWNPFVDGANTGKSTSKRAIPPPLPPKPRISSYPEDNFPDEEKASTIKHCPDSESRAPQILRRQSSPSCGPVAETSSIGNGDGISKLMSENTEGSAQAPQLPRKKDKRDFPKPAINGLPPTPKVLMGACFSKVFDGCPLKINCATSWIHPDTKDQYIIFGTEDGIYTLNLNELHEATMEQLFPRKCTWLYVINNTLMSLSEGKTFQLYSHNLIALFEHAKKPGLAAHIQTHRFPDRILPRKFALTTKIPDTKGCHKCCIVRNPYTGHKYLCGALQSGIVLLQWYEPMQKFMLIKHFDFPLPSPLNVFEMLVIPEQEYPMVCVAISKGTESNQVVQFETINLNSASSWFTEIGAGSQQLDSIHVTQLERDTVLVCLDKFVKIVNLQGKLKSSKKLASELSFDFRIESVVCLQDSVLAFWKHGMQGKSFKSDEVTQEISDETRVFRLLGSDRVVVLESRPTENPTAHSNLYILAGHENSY
Method: as §1, §2

IGF1R = IGF1R (Homo sapiens, UniProt P08069); assay: Kinome selectivity screen IGF1R
Method: as §1, §2

GSK3B (GSK3 beta) = GSK3B (GSK3 beta) (Homo sapiens, UniProt P49841); assay: Kinome selectivity screen GSK3B
Method: as §1, §2

AMPK A1/B1/G1 = AMPK A1/B1/G1 (Homo sapiens, UniProt Q13131); assay: Kinome selectivity screen AMPK
Method: as §1, §2

PAK4 = PAK4 (Homo sapiens, UniProt O96013); assay: Kinome selectivity screen PAK4
Method: as §1, §2

RPS6KA3 (RSK2) = RPS6KA3 (RSK2) (Homo sapiens, UniProt P51812); assay: Kinome selectivity screen RPS6KA3
Method: as §1, §2

LCK = LCK (Homo sapiens, UniProt P06239); assay: Kinome selectivity screen LCK
Method: as §1, §2

CHEK1 (CHK1) = CHEK1 (CHK1) (Homo sapiens, UniProt O14757); assay: Kinome selectivity screen CHEK1
Method: as §1, §2

MAPK1 (ERK2) = MAPK1 (ERK2) (Homo sapiens, UniProt P28482); assay: Kinome selectivity screen MAPK1
Method: as §1, §2

| SMILES | inhibition at 1 µM (IKBKB (IKK beta)) [%] | inhibition at 1 µM (ERBB2 (HER2)) [%] | inhibition at 1 µM (ROCK1) [%] | inhibition at 1 µM (TAOK2 (TAO1)) [%] | inhibition at 1 µM (DYRK3) [%] | inhibition at 1 µM (STK22D (TSSK1)) [%] | inhibition at 1 µM (NTRK1 (TRKA)) [%] | inhibition at 1 µM (FGFR1) [%] | inhibition at 1 µM (MAPK8 (JNK1)) [%] | inhibition at 1 µM (RPS6KB1 (p70S6K)) [%] | inhibition at 1 µM (KIT) [%] | inhibition at 1 µM (GRK4) [%] | inhibition at 1 µM (MAP3K9 (MLK1)) [%] | inhibition at 1 µM (MAPKAPK2) [%] | inhibition at 1 µM (BTK) [%] | inhibition at 1 µM (PIM2) [%] | inhibition at 1 µM (MAP2K4 (MEK4)) [%] | inhibition at 1 µM (ACVR1B (ALK4)) [%] | inhibition at 1 µM (PRKCD (PKC delta)) [%] | inhibition at 1 µM (CDK1/cyclin B) [%] | also measured |
| --- | --- | --- | --- | --- | --- | --- | --- | --- | --- | --- | --- | --- | --- | --- | --- | --- | --- | --- | --- | --- | --- |
| C=CC(=O)Nc1cccc(-c2n[nH]c3ccccc23)c1 [GO32] | -3 | 1 | -3 | 12 | 11 | 0 | 22 | 2 | 15 | 5 | 17 | -5 | 37 | 2 | 11 | -2 | 79 | -8 | 9 | 19 | inhibition at 1 µM (INSR): -10%; inhibition at 1 µM (FLT3): 55%; inhibition at 1 µM (NEK7): 8%; inhibition at 1 µM (SRC): 10%; inhibition at 1 µM (PRKACA (PKA)): -8%; inhibition at 1 µM (PDK1 Direct): 22%; inhibition at 1 µM (IRAK4): 15%; inhibition at 1 µM (MET (cMet)): 9%; inhibition at 1 µM (LRRK2): 95%; inhibition at 1 µM (MAP4K5 (KHS1)): 22%; inhibition at 1 µM (IGF1R): 6%; inhibition at 1 µM (GSK3B (GSK3 beta)): -10%; inhibition at 1 µM (AMPK A1/B1/G1): -5%; inhibition at 1 µM (PAK4): -11%; inhibition at 1 µM (RPS6KA3 (RSK2)): 2%; inhibition at 1 µM (LCK): 5%; inhibition at 1 µM (CHEK1 (CHK1)): 10%; inhibition at 1 µM (MAPK1 (ERK2)): -3% |
| C=CC(=O)Nc1cccc(-c2n[nH]c3cc(C)ccc23)c1 [GO80] | -5 | -1 | 3 | 14 | 22 | -1 | 44 | -2 | 16 | 0 | 10 | -3 | 8 | 1 | 15 | 3 | 81 | 5 | 7 | 22 | inhibition at 1 µM (INSR): -7%; inhibition at 1 µM (FLT3): 79%; inhibition at 1 µM (NEK7): 7%; inhibition at 1 µM (SRC): -4%; inhibition at 1 µM (PRKACA (PKA)): -10%; inhibition at 1 µM (PDK1 Direct): 26%; inhibition at 1 µM (IRAK4): 12%; inhibition at 1 µM (MET (cMet)): 13%; inhibition at 1 µM (LRRK2): 94%; inhibition at 1 µM (MAP4K5 (KHS1)): -11%; inhibition at 1 µM (IGF1R): 7%; inhibition at 1 µM (GSK3B (GSK3 beta)): -8%; inhibition at 1 µM (AMPK A1/B1/G1): -5%; inhibition at 1 µM (PAK4): -16%; inhibition at 1 µM (RPS6KA3 (RSK2)): -1%; inhibition at 1 µM (LCK): 5%; inhibition at 1 µM (CHEK1 (CHK1)): 2%; inhibition at 1 µM (MAPK1 (ERK2)): 3% |
